The target in the experiment is T1, HIPK1 (Myak) (Homo sapiens, UniProt Q86Z02).
T1 construct: purchased Thermo Fisher Scientific (Life Technologies) SelectScreen
Put plainly: SelectScreen Z'LYTE. It counts as biochemical. On the procedure:
The in vitro kinase selectivity of NU5455 was determined using the SelectScreen Broad Assay Panel (Thermo Fisher Scientific) involving activity and binding assays (Supplemental Table 1). […] Class IA PI3Ks were measured using the p85α subunit.
Kinase [ATP] % Assay Kinase [ATP] % Assay Kinase [ATP] % Assay Kinase [ATP] % Assay
DNA-PK Km app 98.3 Z LATS2 n/a 4.7 L KIT D820E n/a 1.3 L GSK3B (GSK3 beta) Km app -2.5 Z
PIK3C3 (hVPS34) Km app 85.9 A PRKCZ (PKC zeta) Km app 4.7 Z GRK1 n/a 1.3 L BMPR2 n/a -2.5 L
PIK3C2B (PI3K-C2 beta) 10 28.9 A FGFR1 Km app 4.7 Z BRSK2 n/a 1.2 L CDC42 BPB (MRCKB) Km app -2.5 Z
SNF1LK2 Km app 26.6 Z MINK1 Km app 4.6 Z NUAK1 (ARK5) Km app 1.2 A AMPK (A2/B2/G2) n/a -2.6 L
HCK Km app 18.0 Z CSF1R (FMS) Km app 4.3 Z CDK9/cyclin K n/a 1.0 L PRKG1 Km app -2.7 Z
NEK2 Km app 17.8 Z CSNK1G3 (CK1 gamma 3) Km app 4.2 Z NUAK2 n/a 1.0 L KIT T670E n/a -2.8 L
ALK Km app 17.3 Z STK32C (YANK3) n/a 4.2 L CDK2/cyclin O n/a 0.9 L ERBB4 (HER4) Km app -2.8 Z
FGFR3 K650M n/a 16.5 L STK22D (TSSK1) Km app 4.2 Z CAMKK2 (CaMKK beta) n/a 0.9 L PLK4 n/a -2.8 L
SIK3 n/a 16.1 L TAOK3 (JIK) n/a 4.2 L FGFR3 Km app 0.9 Z GRK7 Km app -3.0 Z
LYN A Km app 15.2 Z RPS6KA4 (MSK2) Km app 4.2 Z ULK2 n/a 0.9 L MAPKAPK2 Km app -3.1 Z
BMPR1B (ALK6) n/a 14.5 L PTK2B (FAK2) Km app 4.2 Z KIT D816V n/a 0.9 L FGFR4 Km app -3.1 Z
INSRR (IRR) Km app 14.1 Z CLK2 Km app 4.1 Z CAMK1 (CaMK1) 10 0.8 A CASK n/a -3.1 L
PLK2 Km app 14.1 Z STK24 (MST3) Km app 4.1 Z PTK6 (Brk) Km app 0.7 Z GRK5 Km app -3.2 Z
PRKACA (PKA) Km app 14.0 Z CAMK1D (CaMKI delta) Km app 4.1 Z CAMK2B (CaMKII beta) Km app 0.7 Z EGFR (ErbB1) T790M Km app -3.3 Z
EIF2AK2 (PKR) n/a 13.3 L INSR Km app 4.1 Z ACVR1 (ALK2) n/a 0.7 L PAK4 Km app -3.3 Z
PRKX Km app 12.5 Z IRAK1 Km app 4.0 A ABL1 H396P n/a 0.6 L DAPK3 (ZIPK) Km app -3.4 Z
FGR Km app 12.1 Z SRC N1 Km app 3.9 Z MERTK (cMER) A708S n/a 0.6 L RET M918T n/a -3.5 L
CLK1 Km app 11.7 Z SRPK2 Km app 3.9 Z MAPKAPK5 (PRAK) Km app 0.6 Z PRKCQ (PKC theta) Km app -3.7 Z
MARK3 Km app 11.4 Z RPS6KA6 (RSK4) Km app 3.8 Z AKT1 (PKB alpha) Km app 0.5 Z CAMKK1 (CAMKKA) n/a -3.8 L
PDGFRB (PDGFR beta) Km app 11.0 Z GRK6 Km app 3.7 Z NTRK3 (TRKC) Km app 0.4 Z FLT3 D835Y Km app -3.9 Z
PRKCN (PKD3) Km app 10.7 Z PKN1 (PRK1) Km app 3.6 Z ZAP70 Km app 0.3 Z ROCK2 Km app -4.1 Z
STK16 (PKL12) n/a 10.5 L MAP3K8 (COT) 100 3.5 Z CSNK1A1 (CK1 alpha 1) Km app 0.3 Z CHUK (IKK alpha) Km app -4.2 A
FES (FPS) Km app 10.4 Z FLT4 (VEGFR3) Km app 3.5 Z MYLK (MLCK) n/a 0.2 L AXL Km app -4.2 Z
ABL1 Km app 10.4 Z GRK4 Km app 3.5 Z MKNK2 (MNK2) n/a 0.2 L PIM2 Km app -4.3 Z
MUSK Km app 10.3 Z FRK (PTK5) Km app 3.4 Z AMPK (A1/B1/G3) n/a 0.2 L PAK1 Km app -4.4 Z
MAPK1 (ERK2) Km app 10.1 Z FYN A n/a 3.3 L MAP3K2 (MEKK2) n/a 0.1 L BMPR1A (ALK3) n/a -4.4 L
BRAF 100 9.9 Z CDK1/cyclin A2 n/a 3.3 L CDK8/cyclin C n/a 0.1 L STK4 (MST1) Km app -4.4 Z
IGF1R Km app 9.7 Z KIT V559D T670I n/a 3.1 L MARK2 Km app 0.1 Z PRKCH (PKC eta) Km app -4.6 Z
MAPK14 (p38 alpha) Km app 9.7 Z SPHK2 10 3.1 A ICK n/a 0.0 L SGKL (SGK3) Km app -4.6 Z
LCK Km app 9.6 Z FGFR3 G697C n/a 3.1 L FGFR2 Km app 0.0 Z PI4KB (PI4K beta) Km app -4.7 A
MAPK11 (p38 beta) Km app 9.5 Z RIPK2 n/a 3.1 L AKT2 (PKB beta) Km app 0.0 Z PRKCE (PKC epsilon) Km app -4.9 Z
SRC Km app 9.5 Z PAK6 Km app 3.0 Z EPHB2 Km app -0.1 Z PHKG1 Km app -5.0 Z
CHEK1 (CHK1) Km app 9.3 Z LYN B Km app 3.0 Z TGFBR2 n/a -0.1 L PDGFRA D842V Km app -5.0 Z
CAMK2D (CaMKII delta) Km app 9.3 Z DAPK2 n/a 2.9 L TEK (Tie2) Km app -0.1 Z PRKG2 (PKG2) Km app -5.1 Z
PLK1 Km app 9.2 Z EPHA4 Km app 2.9 Z AURKA (Aurora A) Km app -0.1 Z TYRO3 (RSE) Km app -5.1 Z
RET Y791F Km app 9.2 Z PIK3CG (p110 gamma) Km app 2.9 A KIT D816H n/a -0.2 L TAOK2 (TAO1) Km app -5.1 Z
FLT3 Km app 9.1 Z HIPK1 (Myak) Km app 2.8 Z KIT N822K n/a -0.2 L EPHB4 Km app -5.3 Z
MAPK10 (JNK3) 100 9.0 Z ADRBK2 (GRK3) Km app 2.8 Z PRKACG (PRKAC gamma) n/a -0.2 L AURKC (Aurora C) Km app -5.4 Z
CSNK2A2 (CK2 alpha 2) Km app 8.7 Z STK17B (DRAK2) n/a 2.7 L TEK (TIE2) Y1108F n/a -0.3 L JAK1 Km app -5.7 Z […]

For orientation: inhibition means the percentage by which the read-out fell short of the control. Higher therefore signals a response far below the control.

T1 sequence (Q86Z02 whole entry): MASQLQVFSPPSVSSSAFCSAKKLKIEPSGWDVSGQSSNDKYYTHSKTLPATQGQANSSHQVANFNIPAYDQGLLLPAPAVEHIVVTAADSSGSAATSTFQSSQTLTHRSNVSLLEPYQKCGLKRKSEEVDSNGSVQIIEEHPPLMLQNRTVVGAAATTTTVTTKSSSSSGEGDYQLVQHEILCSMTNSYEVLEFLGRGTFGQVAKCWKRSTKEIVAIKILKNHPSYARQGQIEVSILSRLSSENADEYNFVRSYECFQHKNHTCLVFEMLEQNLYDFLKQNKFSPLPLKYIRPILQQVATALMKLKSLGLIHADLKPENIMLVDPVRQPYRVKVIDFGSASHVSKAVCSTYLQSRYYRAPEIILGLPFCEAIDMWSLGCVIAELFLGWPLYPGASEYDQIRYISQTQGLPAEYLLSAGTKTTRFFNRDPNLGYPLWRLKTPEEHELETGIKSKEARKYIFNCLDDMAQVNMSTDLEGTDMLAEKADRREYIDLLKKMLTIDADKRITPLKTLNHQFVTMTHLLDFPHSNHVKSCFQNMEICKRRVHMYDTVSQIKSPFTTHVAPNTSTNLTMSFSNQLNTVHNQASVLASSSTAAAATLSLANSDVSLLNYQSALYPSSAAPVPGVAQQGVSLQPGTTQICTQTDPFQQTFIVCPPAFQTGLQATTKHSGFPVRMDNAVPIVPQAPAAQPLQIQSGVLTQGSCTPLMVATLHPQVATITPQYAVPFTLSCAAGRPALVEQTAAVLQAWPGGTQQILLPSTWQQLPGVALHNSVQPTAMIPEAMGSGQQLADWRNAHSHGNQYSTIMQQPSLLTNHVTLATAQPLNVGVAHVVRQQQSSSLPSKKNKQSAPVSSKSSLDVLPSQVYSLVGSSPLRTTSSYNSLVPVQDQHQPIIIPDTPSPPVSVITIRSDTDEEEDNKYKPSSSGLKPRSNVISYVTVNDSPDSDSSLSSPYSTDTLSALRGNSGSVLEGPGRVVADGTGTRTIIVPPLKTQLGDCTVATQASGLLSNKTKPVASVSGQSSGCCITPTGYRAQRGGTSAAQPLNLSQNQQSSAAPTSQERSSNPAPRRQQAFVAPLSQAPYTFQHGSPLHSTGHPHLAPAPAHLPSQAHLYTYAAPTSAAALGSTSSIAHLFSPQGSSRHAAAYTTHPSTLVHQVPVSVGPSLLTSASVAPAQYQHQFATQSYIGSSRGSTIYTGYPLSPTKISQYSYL

In turn, `CN(C(=O)CN1CCOCC1)c1ccc2sc3c(-c4cccc5c(=O)cc(N6CC7CCC(C6)O7)oc45)cccc3c2c1` [NU5455] showed an inhibition at 1 µM of 2.8%.

Values taken from article PMC6934184, “Selective DNA-PKcs inhibition extends the therapeutic index of localized radiotherapy and chemotherapy” (The Journal of Clinical Investigation, 2019).
